The record followed here is the NIST ThermoML archive (doi:10.1021/acs.jced.8b00492).

± gives the expanded uncertainty stated by the source.

For data set [1] the following is noted: for surface tension liquid-gas: Ring tensiometer; for viscosity: 100 kPa, Liquid, Capillary tube (Ostwald / Ubbelohde) method.
A short description of data set [2]: mn = molality of the nth substance listed, in mol/kg. Conditions: m2 = 0; for surface tension liquid-gas: Ring tensiometer; for viscosity / mass density / speed of sound: 100 kPa, Liquid; for viscosity: Capillary tube (Ostwald / Ubbelohde) method; for mass density: Vibrating tube method; for speed of sound: Frequency=3 MHz, Single path-length method.

As to `O` [water], the surface tension liquid-gas (usually the work needed to enlarge the surface of a liquid by unit area) in data set [1] (293.15 K) was 72.6 ± 0.9 mN/m; in data set [1] (303.15 K) it was 71.1 ± 0.9 mN/m; in data set [1] (313.15 K), 69.2 ± 0.9 mN/m; in data set [1] (323.15 K), 67.7 ± 0.9 mN/m. For the same molecule, the viscosity (in general, the resistance of a fluid to flow) in data set [1] (293.15 K) is reported as 0.993 ± 0.05 mPa·s; in data set [1] (303.15 K) it was 0.802 ± 0.05 mPa·s; in data set [1] (313.15 K), 0.661 ± 0.05 mPa·s; in data set [1] (323.15 K) it was 0.555 ± 0.05 mPa·s.

Take `O` [water] + C1N2CN3CN1CN(C2)C3: in data set [2] (293.15 K), the surface tension liquid-gas is recorded as 72.6 ± 0.9 mN/m and the viscosity was 0.993 ± 0.05 mPa·s. Moreover, in data set [2] (303.15 K), the surface tension liquid-gas came out at 71.1 ± 0.9 mN/m; the viscosity turned out to be 0.802 ± 0.05 mPa·s; the mass density (in general, mass per unit of volume) came out at 995.9 ± 2 kg/m3. Besides, in data set [2] (313.15 K), the surface tension liquid-gas turned out to be 69.2 ± 0.9 mN/m; the viscosity was determined as 0.661 ± 0.05 mPa·s; the speed of sound – broadly, how fast a sound wave travels through the sample – came out at 1529.1 ± 0.7 m/s; the mass density was found to be 992.3 ± 2 kg/m3. In addition, in data set [2] (323.15 K), the surface tension liquid-gas is 67.7 ± 0.9 mN/m, the viscosity amounted to 0.555 ± 0.05 mPa·s and the speed of sound amounted to 1541.5 ± 0.7 m/s.
